From article PMC6470589, “Contribution of Molecular Structure to Self-Assembling and Biological Properties of Bifunctional Lipid-Like 4-(N-Alkylpyridinium)-1,4-Dihydropyridines” (Pharmaceutics, 2019)
Several values for one entry are separate records, joined by “and”; a condition that tells them apart may be missing. Identical values can stand only once. Entries after “also recorded” stand apart in the source; their conditions may differ.

Columns and labels:
[1] = tested on: Bacillus subtilis subsp. spizizenii; assay: Toxicity screen, serial dilution-spot test; assay type: cell-based; settings: gram positive; 24 h exposure in DI water, 28 °C; 0.0001 = no colonies at 0.001 mM;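 note: last dilution that did not fully inhibit growth with colonies still present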
Description: (§1) An estimation of the toxicity of 4-(N-alkylpyridinium)-1,4-DHP derivatives 3, 6, 7, and 9–11 was performed using six prokaryotic (bacteria) and one eukaryotic (yeast) microorganism species according to the procedure elaborated by Suppi et al.. The microorganisms used in the study and their origin were: Bacillus subtilis subsp. spizizenii (ATCC® 6633™*, Microbiologics®, St Cloud, MN, USA), Escherichia coli (ATCC® 8739, Microbiologics®), Klebsiella pneumoniae (Latvian Microorganisms strain collection, LMKK, strain number 535, Riga, Latvia), Micrococcus luteus (LMKK, No. 25), Pseudomonas aeruginosa (NCTC 12924, Biosciences Ltd., Dublin, Ireland), Proteus mirabilis (LMKK, No 590), and Saccharomyces cerevisiae, CEN.PK2 strain [32].
(§2) Bacteria and yeast cultures were cultivated until their exponential growth phase (optical density max 1); then, 100 µL of cell suspension was taken, washed in deionised (DI) water, and added to serially diluted samples of corresponding 4-(N-alkylpyridinium)-1,4-DHPs in DI water. All 1,4-DHPs were tested in five serially diluted concentrations (10 mM, 1 mM, 0.1 mM, 0.01 mM, and 0.001 mM). Test organisms were exposed to 1,4-DHP derivatives in DI water on 96-well microplates (Corning, Corning, NY, USA) at 28 °C for 24 h without shaking in the dark. Then, a 5 µL sample was taken from each well and spotted on yeast extract, bactopeptone, dextrose broth (YPD) (yeast extract 1%, bactopeptone 2%, glucose 2% and agar 2%) plates to test the growth of yeasts and lysogeny broth (LB) (yeast extract 0.5%, bactopeptone 1%, NaCl 0.5% and agar 2%) to test the growth for bacteria. Plates were left in 30 °C for 24 h, and assessed for microbial growth.
(§3) If there were no colonies after incubation with 1,4-DHPs in the last concentration of (0.001 mM), then their boundary concentration was set to 0.0001 mM or 0.1 µM.

[2] = tested on: Escherichia coli; assay: Toxicity screen, serial dilution-spot test; assay type: cell-based; settings: gram negative; 24 h exposure in DI water, 28 °C; 0.0001 = no colonies at 0.001 mM;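 note: last dilution that did not fully inhibit growth with colonies still present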
Description: as §1, §2, §3

[3] = tested on: Klebsiella pneumoniae; assay: Toxicity screen, serial dilution-spot test; assay type: cell-based; settings: gram negative; 24 h exposure in DI water, 28 °C; 0.0001 = no colonies at 0.001 mM;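 note: last dilution that did not fully inhibit growth with colonies still present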
Description: as §1, §2, §3

[4] = tested on: Micrococcus luteus; assay: Toxicity screen, serial dilution-spot test; assay type: cell-based; settings: gram positive; 24 h exposure in DI water, 28 °C; 0.0001 = no colonies at 0.001 mM;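 note: last dilution that did not fully inhibit growth with colonies still present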
Description: as §1, §2, §3

[5] = tested on: Proteus mirabilis; assay: Toxicity screen, serial dilution-spot test; assay type: cell-based; settings: gram negative; 24 h exposure in DI water, 28 °C; 0.0001 = no colonies at 0.001 mM;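 note: last dilution that did not fully inhibit growth with colonies still present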
Description: as §1, §2, §3

[6] = tested on: Pseudomonas aeruginosa; assay: Toxicity screen, serial dilution-spot test; assay type: cell-based; settings: gram negative; 24 h exposure in DI water, 28 °C; 0.0001 = no colonies at 0.001 mM;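 note: last dilution that did not fully inhibit growth with colonies still present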
Description: as §1, §2, §3

[7] = tested on: Saccharomyces cerevisiae, CEN.PK2 strain; assay: Toxicity screen, serial dilution-spot test; assay type: cell-based; settings: yeast; 24 h exposure in DI water, 28 °C; 0.0001 = no colonies at 0.001 mM;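 note: last dilution that did not fully inhibit growth with colonies still present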
Description: as §1, §2, §3

[8] = tested on: six prokaryotic (bacteria) and one eukaryotic (yeast) microorganism species; assay: Toxicity screen, whole panel of microorganisms; assay type: cell-based; settings: concentrations tested 10 to 0.001 mM
Description: as §1, §2, §3

[9] = Self-assembling properties by dynamic light scattering (DLS); assay type: physicochemical
Description: Samples of compounds for dynamic light scattering (DLS) studies were prepared by thin-film hydration method in an aqueous solution at a concentration of 0.5 mg/mL for compounds 1–7, 0.25 mg/mL for compounds 8–10, and 0.1 mg/mL for compound 11. A corresponding amount of compounds was weighted in a round-bottom flask and dissolved in chloroform; then, the organic solvent was removed in vacuo, and the residue was dried in high vacuo for 1 h. An appropriate amount of deionised water was added to each flask for the preparation of stock solutions with the above-mentioned concentrations. Samples were prepared by sonication using a bath-type sonicator (Cole Parmer Ultrasonic Cleaner 8891CPX (Vernon Hills, IL, USA)). Samples were sonicated for 60 min at 50 °C.
The DLS measurements of the nanoparticles in an aqueous solution were carried out on a Zetasizer Nano ZSP (Malvern Panalytical Ltd., Malvern, UK) instrument with Malvern Instruments Ltd. Software 7.12, using the following specifications—medium: water; refractive index: 1.33; viscosity: 0.8872 cP; temperature: 25 °C; dielectric constant: 78.5; nanoparticles: liposomes; refractive index of materials: 1.60; detection angle: 173°; wavelength: 633 nm. Data were analysed using the multimodal number distribution software that was included with the instrument. The measurements were performed in triplicate in order to check their reproducibility.

[10] = Determination of critical aggregation concentration (CAC) by DLS; assay type: physicochemical; settings: aqueous media
Description: The critical aggregation concentrations (CAC) of 4-(N-alkylpyridinium)-1,4-DHP derivatives were determined in aqueous media using a Zetasizer Nano S90 (Malvern Panalytical Ltd., Malvern, UK) instrument with Malvern Instruments Ltd. Software according to procedure described by Topel et al. and modified by our group. Briefly, as stock solutions of tested compounds were used, samples were prepared for self-assembling experiments. All of the subsequent samples were prepared starting from the concentrated stock solution, which was subjected to a serial two-fold dilution each time with water. The intensity values of scattered light (kcps) as a function of concentration of amphiphiles were analysed. The scattering intensities detected for amphiphile concentrations below CAC have an approximately constant value corresponding to water. The intensity starts to show a linear increase with concentration at the CAC, since the amount of nanoparticles increases in the solution. The intersection of the best-fit lines drawn through the data points is the preliminary CAC value of the compounds.

[11] = parameters: method as in PMID 9713710; settings: cited from earlier work
[12] = tested on: human erythrocytes; parameters: method as in PMID 9713710; settings: cited from earlier work

With `CCCCCCCCCCCCCCCC[n+]1cccc(C2C(C(=O)OCC)=C(C)NC(C)=C2C(=O)OCC)c1` [Compound 10] the “Boundary concentration, B. subtilis” value [1] was 0.0001 mM, the “Boundary concentration, E. coli” value [2] was 0.01 mM and the “Boundary concentration, K. pneumoniae” value [3] was 0.01 mM. The “Boundary concentration, M. luteus” value [4] was 0.001 mM, the “Boundary concentration, P. mirabilis” value [5] was 0.01 mM and the “Boundary concentration, P. aeruginosa” value [6] was 10 mM. The “Boundary concentration, S. cerevisiae” value [7] was 0.0001 mM, the “Effect on survival of microorganisms” value [8] was “toxic at various degrees” and the “PDI ± SD, 1 Set” value ([9]; freshly prepared samples) was 0.10 and 0.10 ± 0.06. The “Zeta-Pot ± SD” value ([9]; freshly prepared samples in water, 0.5 mg/mL (1–7), 0.25 mg/mL (8–10), 0.1 mg/mL (11)) was “+49.70 ± 7.94 mV”, the “PDI ± SD, 2 Set” value ([9]; two weeks after the first set, samples stored at r.t.) was 0.25 and 0.25 ± 0.05 and the Stability of nanoparticles ([9]; two weeks of storage at r.t., DLS) was “stable after two weeks of storage; also recorded: confirmed the stability of nanoparticles”. For the same compound, the CAC [10] was 28.2 µM, the “Release of calcein from DPPC liposomes” value [11] was “remarkable release of calcein from DPPC liposomes” and the “Hemolysis of human erythrocytes” value [12] was “induced the hemolysis of human erythrocytes”.
